Reference: patent publication US5487898A, “Compositions and method for the sublingual or buccal administration therapeutic agents” (Abbott Laboratories, priority 1994, dated 1996)
Where two headings read alike, the source gives them in different places.

Key:
[1] = dog, in vivo
Experimental: The dose of administered leuprolide acetate mid the measurement of plasma leuprolide concentration are the same as described for FIG. 1.
In this and subsequent Examples, bioavailability is calculated and expressed either in terms of Area Under Curve (AUC) or as percent (%) bioavailability. AUC is determined by calculating the area under the curve of plots of time (X-axis) versus plasma concentration (Y-axis) of the administered polypeptide. Typically, AUC is determined over a 6 (0-6) or 8 (0-8) hour period. Percent bioavailability is calculated as the ratio [formula] Increases in AUC and/or bioavailability indicate increased bioavailability of the administered polypeptide.
In one such composition the pH value was adjusted to a value of about 7.0 with NaOH.
The liquid compositions were sublingually administered to dogs (0.1 ml/10 kg body wt) and the plasma levels of leuprolide measured over 8 hours.

[2] = dog, in vivo; remark: listed apart in the source

Compound: CCNC(=O)[C@@H]1CCCN1C(=O)[C@H](CCCNC(=N)N)NC(=O)[C@H](CC(C)C)NC(=O)[C@@H](CC(C)C)NC(=O)[C@H](Cc1ccc(O)cc1)NC(=O)[C@H](CO)NC(=O)[C@H](Cc1c[nH]c2ccccc12)NC(=O)[C@H](Cc1c[nH]cn1)NC(=O)[C@@H]1CCC(=O)N1 [leuprolide acetate, 5-oxo-L-prolyl-L-histidyl-L-tryptophanyl-L-seryl-L-tyrosyl-D-leueyl-L-leueyl-L-arginyl-L-prolyl-ethylamide]
- bioavailability vs benzoic acid concentration (FIG. 3) [1]: directly proportional to benzoic acid concentration
- Percent Bioavailability ([1]; pH 5.6): 24.5%
- Percent Bioavailability ([1]; pH 7): 2.7%
- bioavailability, AUC 0-8 hours vs peppermint oil concentration (FIG. 4) [2]: increases the bioavailability
